Experiments:
[1] = biological target: Muscarinic acetylcholine receptor
[2] = biological target: T1, Muscarinic acetylcholine receptor M2 (Homo sapiens, UniProt P08172)
T1 sequence (P08172 whole entry): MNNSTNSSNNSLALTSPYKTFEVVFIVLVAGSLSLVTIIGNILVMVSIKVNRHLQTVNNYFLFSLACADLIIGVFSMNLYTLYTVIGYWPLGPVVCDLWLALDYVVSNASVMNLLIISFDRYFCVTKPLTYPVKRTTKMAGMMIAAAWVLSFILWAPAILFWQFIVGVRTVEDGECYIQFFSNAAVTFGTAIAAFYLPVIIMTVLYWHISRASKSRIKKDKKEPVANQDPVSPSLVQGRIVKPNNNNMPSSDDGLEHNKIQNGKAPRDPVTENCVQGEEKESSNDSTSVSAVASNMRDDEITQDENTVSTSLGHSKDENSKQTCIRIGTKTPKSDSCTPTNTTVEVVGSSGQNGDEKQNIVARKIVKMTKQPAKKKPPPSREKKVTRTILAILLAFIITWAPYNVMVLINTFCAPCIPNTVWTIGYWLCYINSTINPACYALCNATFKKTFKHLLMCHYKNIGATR
Description: Stimulation of cAMP in CHO cells expressing human m2 receptor

[3] = biological target: T2, Muscarinic acetylcholine receptor M1 (Homo sapiens, UniProt P11229)
T2 sequence (P11229 whole entry): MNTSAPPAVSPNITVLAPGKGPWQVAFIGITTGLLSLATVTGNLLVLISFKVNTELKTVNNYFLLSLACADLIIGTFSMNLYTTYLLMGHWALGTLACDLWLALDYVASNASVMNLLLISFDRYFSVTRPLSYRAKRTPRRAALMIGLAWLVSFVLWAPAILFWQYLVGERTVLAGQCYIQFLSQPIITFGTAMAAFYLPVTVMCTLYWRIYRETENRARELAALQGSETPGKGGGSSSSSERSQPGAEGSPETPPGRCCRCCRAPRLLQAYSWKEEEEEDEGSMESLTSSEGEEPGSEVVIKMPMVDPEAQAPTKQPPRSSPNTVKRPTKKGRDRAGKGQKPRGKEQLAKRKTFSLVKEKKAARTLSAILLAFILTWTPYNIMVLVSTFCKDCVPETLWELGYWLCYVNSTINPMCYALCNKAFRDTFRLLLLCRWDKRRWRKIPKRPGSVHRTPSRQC
Description: Stimulation of phosphoinositide hydrolysis in A9L cells expressing human m1 receptor

[4] = biological target: T2, Muscarinic acetylcholine receptor M1; assay: Effective concentration required for stimulation of phosphoinositide hydrolysis in A9L cells expressing human m1 receptor; type: functional, cell-based
[5] = Potency ratio of EC50 of the CHO cell lines to that of A9L cell lines was calculated; type: functional
[6] = biological target: T3, Muscarinic acetylcholine receptor M1 (Homo sapiens) (UniProt P11229); assay: Stimulation of phosphoinositide hydrolysis in BHK cells; type: functional, cell-based
T3 sequence (whole entry): T2 sequence (P11229 whole entry)

[7] = biological target: Muscarinic acetylcholine receptor; assay: Binding affinity against muscarinic receptor in rat brain membranes using oxotremorine-M as ligand; type: cell membranes

SMILES	IC50 [1] [nM]	EC50 [2] [nM]	also measured
c1ccc(CCCSc2nsnc2[C@H]2CN3CCC[C@H]2C3)cc1	1.3	–	–
CCCCCCCOc1nsnc1C1=CCCN(C)C1	6.2	–	–
C(#Cc1ccccc1)COc1nsnc1[C@H]1CN2CCC[C@@H]1C2	78	2250	–
CN1CCC=C(c2nsnc2OCc2ccccc2)C1	8	–	–
CN1CCC=C(c2nsnc2SCCCc2ccccc2)C1	1.3	–	–
C(#Cc1ccccc1)COc1nsnc1[C@H]1CN2CCC1C2 (stereo not given in full)	0.8	11	EC50 [3]: 0.99 nM
C(#Cc1ccccc1)CSc1nsnc1[C@H]1CN2CCC[C@H]1C2	1.7	2	EC50 [4]: 0.2 nM
CN1CCC=C(c2nsnc2OCCCc2ccccc2)C1	13	–	–
COc1nsnc1C1=CCCN(C)C1	22	–	–
c1ccc(CCCSc2nsnc2[C@H]2CN3CC[C@H]2C3)cc1	1.7	–	–
CN1CCC=C(c2nsnc2OCC#Cc2ccccc2)C1	8.5	240	Potency ratio [5]: 2; EC50 [3]: 110 nM
CCCOc1nsnc1C1=CCCN(C)C1	1.6	–	–
COc1cccc(C#CCO/N=C2\CN3CCC2C3)c1 (stereo not given)	167	28000	EC50 [3]: > 1000 nM; Max PI [6]: 14%
C(#Cc1ccccc1)COc1nsnc1[C@H]1CN2CCC[C@H]1C2	1.2	9	EC50 [3]: 0.5 nM
C(#Cc1ccccc1)COc1nsnc1[C@@H]1CN2CCC[C@@H]1C2	–	29	IC50 [7]: 3.4 nM
c1ccc(CCCSc2nsnc2C2CN3CCC2CC3)cc1 (stereo not given)	14	–	–
CCCCCCCCOc1nsnc1C1=CCCN(C)C1	30	–	–
C(#Cc1ccccc1)COc1nsnc1C1CN2CCC1CC2 (stereo not given)	4.7	62	EC50 [3]: 15.7 nM
CN1CCC=C(c2nsnc2SCc2ccccc2)C1	5.9	–	–

SMILES	IC50 [1] [nM]	EC50 [2] [nM]	also measured
CCCCCCOc1nsnc1[C@@H]1CN2CC[C@H]1C2 (stereo in doubt; 26)	6	–	–
CCCCCCOc1nsnc1C1CN2CCC1CC2 (stereo not given)	4.3	–	–
c1ccc(CCCSc2nsnc2[C@@H]2CN3CCC[C@H]2C3)cc1	35	–	–
CCCCCCOc1nsnc1[C@H]1CN2CC[C@H]1C2	0.73	–	–
C(#Cc1ccccc1)COc1nsnc1[C@@H]1CN2CCC[C@H]1C2	66	227	EC50 [3]: 28.3 nM
CCCCCCOc1nsnc1[C@H]1CN2CCC[C@H]1C2	1.2	–	–
CCCCCOc1nsnc1C1=CCCN(C)C1	2	–	–
CCCCCCOc1nsnc1[C@@H]1CN2CCC[C@H]1C2	63	–	–
CCCCCCOc1nsnc1[C@@H]1CN2CC[C@H]1C2 (stereo in doubt; 13)	16	–	–
C(#Cc1ccccc1)CSc1nsnc1[C@@H]1CN2CCC[C@H]1C2	363	> 10000	EC50 [3]: 1 nM
CN1CCC=C(c2nsnc2OCCCCc2ccccc2)C1	20	–	–
CCOc1nsnc1C1=CCCN(C)C1	5.7	–	–
CN1CCC=C(c2nsnc2SCCc2ccccc2)C1	23	–	–
C(#Cc1ccccc1)COc1nsnc1[C@@H]1CN2CC[C@H]1C2	20	1100	EC50 [3]: 67.3 nM
CN1CCC=C(c2nsnc2OCCc2ccccc2)C1	15	–	–
C(#Cc1ccccc1)CSc1nsnc1[C@@H]1CN2CC[C@H]1C2	42	139	EC50 [3]: > 100 nM
C(#Cc1ccccc1)COc1nsnc1[C@H]1CN2CC[C@@H]1C2	41	1080	EC50 [3]: 159 nM
C(#Cc1ccccc1)COc1nsnc1C12CN3CC1C2C3	14	779	EC50 [3]: 70.5 nM

From ChEMBL document CHEMBL1131552, “Identification of side chains on 1,2,5-thiadiazole-azacycles optimal for muscarinic m1 receptor activation” (Bioorg Med Chem Lett, 1998)
